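Briefly, cells in 96-well plates were exposed to five compound concentrations for 48 h, and endpoints were estimated by linear interpolation. TGI denotes the concentration required for complete inhibition of growth.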
Assays:
Assay in all cases: NCI anticancer screen, dose series, 48 h
SK-OV-3 ovarian = tested on: SK-OV-3 ovarian
UACC-257 melanoma = tested on: UACC-257 melanoma
SN12C renal = tested on: SN12C renal
SW-620 colon = tested on: SW-620 colon
K-562 leukemia = tested on: K-562 leukemia
MCF7 breast = tested on: MCF7 breast
HOP-92 NSCLC = tested on: HOP-92 NSCLC
TK-10 renal = tested on: TK-10 renal
SNB-19 CNS = tested on: SNB-19 CNS
HCT-116 colon = tested on: HCT-116 colon
HT29 colon = tested on: HT29 colon
IGROV1 ovarian = tested on: IGROV1 ovarian
PC-3 prostate = tested on: PC-3 prostate
M14 melanoma = tested on: M14 melanoma
CAKI-1 renal = tested on: CAKI-1 renal
OVCAR-3 ovarian = tested on: OVCAR-3 ovarian
NCI-H522 lung = tested on: NCI-H522 lung
UO-31 renal = tested on: UO-31 renal
A498 renal = tested on: A498 renal
786-0 renal = tested on: 786-0 renal
MDA-MB-435 = tested on: MDA-MB-435
SF-295 CNS = tested on: SF-295 CNS
SK-MEL-28 melanoma = tested on: SK-MEL-28 melanoma
U251 CNS = tested on: U251 CNS
MDA-MB-231 breast = tested on: MDA-MB-231 breast
RPMI-8226 leukemia = tested on: RPMI-8226 leukemia
HS 578T breast = tested on: HS 578T breast
NCI-H23 lung = tested on: NCI-H23 lung
OVCAR-4 ovarian = tested on: OVCAR-4 ovarian
MDA-N = tested on: MDA-N
HCT-15 colon = tested on: HCT-15 colon
UACC-62 melanoma = tested on: UACC-62 melanoma
MOLT-4 leukemia = tested on: MOLT-4 leukemia
SF-268 CNS = tested on: SF-268 CNS
A549 NSCLC = tested on: A549 NSCLC
T-47D breast = tested on: T-47D breast
RXF 393 renal = tested on: RXF 393 renal
BT-549 breast = tested on: BT-549 breast
SK-MEL-5 melanoma = tested on: SK-MEL-5 melanoma
OVCAR-5 ovarian = tested on: OVCAR-5 ovarian
NCI/ADR-RES ovarian = tested on: NCI/ADR-RES ovarian
LOX IMVI melanoma = tested on: LOX IMVI melanoma
ACHN renal = tested on: ACHN renal
MALME-3M melanoma = tested on: MALME-3M melanoma
DU-145 prostate = tested on: DU-145 prostate
EKVX NSCLC = tested on: EKVX NSCLC
HOP-62 NSCLC = tested on: HOP-62 NSCLC
SF-539 CNS = tested on: SF-539 CNS
SR leukemia = tested on: SR leukemia
NCI-H226 lung = tested on: NCI-H226 lung
COLO 205 colon = tested on: COLO 205 colon
HL-60(TB) leukemia = tested on: HL-60(TB) leukemia
OVCAR-8 ovarian = tested on: OVCAR-8 ovarian
KM12 colon = tested on: KM12 colon

Question: Which results are given for `O=C1N2CCc3c([nH]c4ccccc34)C23CC2CCCCC12S3` (centres undefined)?
Answer: TGI (SK-OV-3 ovarian): > 100 µM; TGI (UACC-257 melanoma): 73.1 µM; TGI (SN12C renal): > 100 µM; TGI (SW-620 colon): > 100 µM; TGI (K-562 leukemia): > 100 µM; TGI (MCF7 breast): > 100 µM; TGI (HOP-92 NSCLC): > 100 µM; TGI (TK-10 renal): > 100 µM; TGI (SNB-19 CNS): > 100 µM; TGI (HCT-116 colon): > 100 µM; TGI (HT29 colon): > 100 µM; TGI (IGROV1 ovarian): > 100 µM; TGI (PC-3 prostate): > 100 µM; TGI (M14 melanoma): > 100 µM; TGI (CAKI-1 renal): > 100 µM; TGI (OVCAR-3 ovarian): > 100 µM; TGI (NCI-H522 lung): > 100 µM; TGI (UO-31 renal): > 100 µM; TGI (A498 renal): > 100 µM; TGI (786-0 renal): > 100 µM; TGI (MDA-MB-435): > 100 µM; TGI (SF-295 CNS): > 100 µM; TGI (SK-MEL-28 melanoma): > 100 µM; TGI (U251 CNS): > 100 µM; TGI (MDA-MB-231 breast): > 100 µM; TGI (RPMI-8226 leukemia): > 100 µM; TGI (HS 578T breast): > 100 µM; TGI (NCI-H23 lung): > 100 µM; TGI (OVCAR-4 ovarian): > 100 µM; TGI (MDA-N): > 100 µM; TGI (HCT-15 colon): > 100 µM; TGI (UACC-62 melanoma): > 100 µM; TGI (MOLT-4 leukemia): > 100 µM; TGI (SF-268 CNS): > 100 µM; TGI (A549 NSCLC): > 100 µM; TGI (T-47D breast): > 100 µM; TGI (RXF 393 renal): > 100 µM; TGI (BT-549 breast): > 100 µM; TGI (SK-MEL-5 melanoma): > 100 µM; TGI (OVCAR-5 ovarian): > 100 µM; TGI (NCI/ADR-RES ovarian): > 100 µM; TGI (LOX IMVI melanoma): > 100 µM; TGI (ACHN renal): > 100 µM; TGI (MALME-3M melanoma): > 100 µM; TGI (DU-145 prostate): > 100 µM; TGI (EKVX NSCLC): > 100 µM; TGI (HOP-62 NSCLC): > 100 µM; TGI (SF-539 CNS): > 100 µM; TGI (SR leukemia): > 100 µM; TGI (NCI-H226 lung): > 100 µM; TGI (COLO 205 colon): > 100 µM; TGI (HL-60(TB) leukemia): > 100 µM; TGI (OVCAR-8 ovarian): > 100 µM; TGI (KM12 colon): > 100 µM

Reference: PubChem BioAssay (NCI)
